Results published in patent US20160170302A1, “NOVEL COMPOUND” (TOKYO OHKA KOGYO CO., LTD., priority 2011, published 2016).

Assay: Solubility to organic solvents PM and AN
Settings: for Solubility to Solvent AN: solvent: cyclohexanone (AN); for Solubility to Solvent PM: solvent: propylene glycol monomethyl ether acetate (PM)

Compound | Solubility to Solvent AN [mass %] | Solubility to Solvent PM [mass %]
CCO[Si](C)(CCCN)OCC [Comparative Compound 6, reference compound] | >50 | >50
CCN(CC)C(=O)/C=C/c1ccc(OC)cc1 [Compound 1] | >50 | >50
COc1ccc(/C=C/C(=O)Nc2ccccc2)cc1 [Compound 2] | >50 | >50
COc1ccc(/C=C/C(=O)n2ccnc2)cc1 [Compound 3] | >50 | >50
COc1ccc(/C=C/C(=O)n2ccnc2)cc1[N+](=O)[O-] [Compound 6] | >50 | >50
CCN(CC)C(=O)/C=C/c1ccc(OC)cc1[N+](=O)[O-] [Compound 9] | >50 | >50
CCN(CC)C(=O)/C=C/c1ccc(OC)c([N+](=O)[O-])c1 [Compound 10] | >50 | >50
CCN(CC)C(=O)/C(C)=C/c1ccc(OC)cc1[N+](=O)[O-] [Compound 11] | >50 | >50

Other lines, results leading:

Solubility to Solvent AN [mass %] | Solubility to Solvent PM [mass %] | Compound
>50 | >50 | CCN(CC)C(=O)/C(C)=C/c1ccc(OC)c([N+](=O)[O-])c1 [Compound 12]
>50 | >50 | COc1ccc(/C=C/C(=O)N2CCCCC2)c([N+](=O)[O-])c1 [Compound 13]
>50 | >50 | COc1ccc(/C=C/C(=O)N2CCCCC2)cc1[N+](=O)[O-] [Compound 14]
>50 | >50 | COc1ccc(/C=C(\C)C(=O)N2CCCCC2)c([N+](=O)[O-])c1 [Compound 15]
>50 | >50 | COc1ccc(/C=C(\C)C(=O)N2CCCCC2)cc1[N+](=O)[O-] [Compound 16]
>50 | >50 | COc1ccc(/C=C/C(=O)N2CCCCC2)cc1 [Compound 17]
>50 | >50 | COc1ccc(/C=C(\C)C(=O)n2ccnc2)cc1 [Compound 18]
>50 | >50 | CCN(CC)C(=O)/C(C)=C/c1ccc(OC)cc1 [Compound 19]
>50 | >50 | COc1ccc(/C=C(\C)C(=O)Nc2ccccc2)cc1 [Compound 20]
